Source: ChEMBL document CHEMBL5338806, “Rationally Designed Nonapeptides with Great Skin Photoprotective Effect through Producing Type 1 Collagen and Blocking the mTOR Pathway” (J Med Chem, 2023)
Values belong to the compound of their own block, whether it stands above or below them. The source made the active and inactive calls. The calls are words filed in the database; no cut-off is given here. Where a SMILES comes first, the peptide text is derived from it.

Assays:
HFF-1 [1] = assay: Inhibition of H2O2-induced AKT phosphorylation in HFF-1 cells at 5 to 25 ug/mL pretreated with compound for 24 hrs followed by H2O2 exposure for 2 hrs by Western blot analysis; type: cell-based; details: Homo sapiens, dose 5-25 µg/ml, time 26.0 hrs
HFF-1 [2] = assay: Inhibition of intracellular ROS level in UV-A-induced SIPS HFF-1 cell model assessed as reduction in ROS level pretreated with compound for 24 hrs followed by 10.8 J/cm^2 UV-A irritation incubated for 30 mins under dark condition by DCFH-DA staining based flow cytometry analysis; type: functional; details: Homo sapiens, dose 5-50 µg/ml, time 24.5 hrs
HFF-1 [3] = assay: Downregulation of MMP-1 expression in UV-A-induced SIPS HFF-1 cell model pretreated with compound for 24 hrs followed by 10.8 J/cm^2 UV-A irradiation by Western blot analysis; type: functional, cell-based; details: Homo sapiens, dose 5-25 µg/ml
HFF-1 [4] = assay: Upregulation of COL-1 expression in UV-A-induced SIPS HFF-1 cell model pretreated with compound for 24 hrs followed by 10.8 J/cm^2 UV-A irradiation by Western blot analysis; type: functional, cell-based; details: Homo sapiens, dose 5-25 µg/ml
Mus musculus [5] = assay: In vivo anti-skin aging activity against UV-induced SIPS Kunming mouse model assessed as upregulation of skin elasticity at 100 ug/ml administered topically and measured for 10 weeks in presence of propylene glycol; type: functional, organism-based; details: dose 100.0 µg/ml, route top
Mus musculus [6] = assay: In vivo anti-skin aging activity against UV-induced SIPS Kunming mouse model assessed as prevention of wrinkle and erythema formation at 100 ug/ml administered topically and measured for 10 weeks in presence of propylene glycol by macroscopic analysis; type: functional, organism-based; details: dose 100.0 µg/ml, route top
Mus musculus [7] = assay: In vivo anti-skin aging activity against UV-induced SIPS Kunming mouse model assessed as increase in Skin-fold thickness of dorsal skin at 100 ug/ml administered topically and measured for 10 weeks in presence of propylene glycol by caliper method; type: functional, organism-based; details: dose 100.0 µg/ml, route top
[8] = target: Ribosomal protein S6 kinase (Homo sapiens) (UniProt P51812+Q9UBS0+O75676+Q15349+O75582+P23443+Q9UK32+Q15418); assay: Inhibition of H2O2-induced S6K phosphorylation in HFF-1 cells at 5 to 25 ug/mL pretreated with compound for 24 hrs followed by H2O2 exposure for 2 hrs by Western blot analysis; type: cell-based; details: dose 5-25 µg/ml, time 26.0 hrs
[9] = Toxicity in Wistar rat mast cell assessed as cell degranulation by measuring beta-hexosaminidase release at 10 ug/mL incubated for 15 mins by fluorescence based analysis (reference value: 20.13 +/- 1.40 %); details: 0.25 h, at 10 µg/mL
HFF-1 [10] = assay: Antioxidant activity against UV-A-induced SIPS HFF-1 cell model assessed as recovery of CAT level at 5 to 25 ug/mL pretreated with compound followed by 10.8 J/cm^2 UV-A irradiation; type: functional, cell-based; details: Homo sapiens, dose 5-25 µg/ml
HFF-1 [11] = assay: Protection against H2O2-induced SIPS HFF-1 cell model assessed as reduction in cell senescence at 5 to 25 ug/mL pretreated for 24 hrs followed by irritation with H2O2 for 2 hrs by SA-beta-Gal staining assay; type: functional, cell-based; details: Homo sapiens, dose 5-25 µg/ml, time 26.0 hrs
Mus musculus [12] = assay: In vivo anti-skin aging activity against UV-induced SIPS Kunming mouse model assessed as restoration of skin elasticity at 100 ug/ml administered topically for 5 weeks in presence of propylene glycol; type: functional, organism-based; details: dose 100.0 µg/ml, route top
HFF-1 [13] = assay: Induction of autophagy in H2O2-induced SIPS HFF-1 cell model assessed as p62 expression at 5 to 25 ug/mL pretreated with compound for 24 hrs followed by H2O2 exposure for 2 hrs by Western blot analysis; type: functional, cell-based; details: Homo sapiens, dose 5-25 µg/ml, time 26.0 hrs
Mus musculus [14] = assay: Protection against UV radiation-stress induced skin damage in Kunming mouse model assessed as repair of broken skin at 20 ug/ml administered topically and measured every 2 days for 10 days; type: functional, organism-based; details: dose 20.0 µg/ml, route top, time 10.0 day
[15] = Toxicity in Wistar rat mast cell assessed as cell degranulation by measuring increase in beta-hexosaminidase release at 10 ug/mL incubated for 15 mins by fluorescence based analysis (reference value: 0 +/- 1.40 %); details: 0.25 h, at 10 µg/mL
[16] = Antioxidant activity assessed as ABTS radical scavenging activity in presence of 400 mM NaCl; type: functional
Mus musculus [17] = assay: In vivo anti-skin aging activity against UV-induced SIPS Kunming mouse model assessed as restoration of dorsal skin thickness at 100 ug/ml administered topically for 5 weeks in presence of propylene glycol by caliper method; type: functional, organism-based; details: dose 100.0 µg/ml, route top
Mus musculus [18] = assay: In vivo anti-skin aging activity against UV-induced SIPS Kunming mouse model assessed as repair of wrinkled skin at 100 ug/ml administered topically for 5 weeks in presence of propylene glycol by macroscopic analysis; type: functional, organism-based; details: dose 100.0 µg/ml, route top
[19] = Stability of compound in human serum assessed as protease mediated degradation at 2 mg/mL incubated for 24 hrs by RP-HPLC analysis; type: ADME, cell-free
HFF-1 [20] = assay: Antioxidant activity against UV-A-induced SIPS HFF-1 cell model assessed as recovery of SOD level at 5 to 25 ug/mL pretreated with compound followed by 10.8 J/cm^2 UV-A irradiation; type: functional, cell-based; details: Homo sapiens, dose 5-25 µg/ml
HFF-1 [21] = assay: Inhibition of H2O2-stimulated IL-6 production in SIPS HFF-1 cell model pre-incubated with compound for 12 hrs followed by H2O2 stimulation for 60 mins by ELISA method; type: functional, cell-based; details: Homo sapiens, dose 5-25 µg/ml, time 13.0 hrs
[22] = Toxicity in Wistar rat mast cell assessed as cell degranulation by measuring beta-hexosaminidase release at 160 ug/mL incubated for 15 mins by fluorescence based analysis (reference value: 20.13 +/- 1.40 %); details: 0.25 h, at 160 µg/mL
[23] = target: Nuclear factor NF-kappa-B complex (Homo sapiens) (UniProt Q00653+P19838+Q04206); assay: Inhibition of NF-kappaB activation in HFF-1 cells assessed as suppression of UV-A-induced IkappaBalpha degradation at 5 to 25 ug/mL pretreated with compound for 24 hrs followed by 10.8 J/cm^2 UV-A irradiation by Western blot analysis; type: cell-based; details: dose 5-25 µg/ml
Sequence of Nuclear factor NF-kappa-B complex (Homo sapiens) (P19838 whole entry, looked up): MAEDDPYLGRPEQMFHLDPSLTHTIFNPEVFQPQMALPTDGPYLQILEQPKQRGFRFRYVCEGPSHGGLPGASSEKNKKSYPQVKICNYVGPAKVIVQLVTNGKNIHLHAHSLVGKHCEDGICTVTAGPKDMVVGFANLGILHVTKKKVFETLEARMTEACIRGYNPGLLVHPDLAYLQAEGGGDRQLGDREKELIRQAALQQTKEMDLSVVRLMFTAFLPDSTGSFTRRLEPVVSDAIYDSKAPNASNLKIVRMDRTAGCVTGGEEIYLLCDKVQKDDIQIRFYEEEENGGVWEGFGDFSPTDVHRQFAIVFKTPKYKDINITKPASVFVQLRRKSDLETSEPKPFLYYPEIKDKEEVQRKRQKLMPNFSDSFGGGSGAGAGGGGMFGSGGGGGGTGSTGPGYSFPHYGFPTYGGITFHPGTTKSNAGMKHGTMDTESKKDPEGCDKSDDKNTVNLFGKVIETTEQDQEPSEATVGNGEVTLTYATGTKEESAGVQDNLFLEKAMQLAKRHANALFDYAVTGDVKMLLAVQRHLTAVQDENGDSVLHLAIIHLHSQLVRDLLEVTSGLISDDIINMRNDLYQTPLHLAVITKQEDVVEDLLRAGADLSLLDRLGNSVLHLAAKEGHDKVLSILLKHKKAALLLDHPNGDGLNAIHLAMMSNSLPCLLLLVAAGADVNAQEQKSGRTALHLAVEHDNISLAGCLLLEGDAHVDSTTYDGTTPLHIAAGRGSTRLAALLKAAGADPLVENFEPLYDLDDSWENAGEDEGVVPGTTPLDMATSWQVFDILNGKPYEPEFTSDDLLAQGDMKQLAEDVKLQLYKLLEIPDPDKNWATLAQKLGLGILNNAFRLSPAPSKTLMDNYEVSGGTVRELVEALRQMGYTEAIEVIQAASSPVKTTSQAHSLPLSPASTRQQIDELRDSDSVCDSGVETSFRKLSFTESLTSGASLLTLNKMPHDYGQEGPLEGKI
Sequence of Nuclear factor NF-kappa-B complex (Homo sapiens) (Q00653 whole entry, looked up): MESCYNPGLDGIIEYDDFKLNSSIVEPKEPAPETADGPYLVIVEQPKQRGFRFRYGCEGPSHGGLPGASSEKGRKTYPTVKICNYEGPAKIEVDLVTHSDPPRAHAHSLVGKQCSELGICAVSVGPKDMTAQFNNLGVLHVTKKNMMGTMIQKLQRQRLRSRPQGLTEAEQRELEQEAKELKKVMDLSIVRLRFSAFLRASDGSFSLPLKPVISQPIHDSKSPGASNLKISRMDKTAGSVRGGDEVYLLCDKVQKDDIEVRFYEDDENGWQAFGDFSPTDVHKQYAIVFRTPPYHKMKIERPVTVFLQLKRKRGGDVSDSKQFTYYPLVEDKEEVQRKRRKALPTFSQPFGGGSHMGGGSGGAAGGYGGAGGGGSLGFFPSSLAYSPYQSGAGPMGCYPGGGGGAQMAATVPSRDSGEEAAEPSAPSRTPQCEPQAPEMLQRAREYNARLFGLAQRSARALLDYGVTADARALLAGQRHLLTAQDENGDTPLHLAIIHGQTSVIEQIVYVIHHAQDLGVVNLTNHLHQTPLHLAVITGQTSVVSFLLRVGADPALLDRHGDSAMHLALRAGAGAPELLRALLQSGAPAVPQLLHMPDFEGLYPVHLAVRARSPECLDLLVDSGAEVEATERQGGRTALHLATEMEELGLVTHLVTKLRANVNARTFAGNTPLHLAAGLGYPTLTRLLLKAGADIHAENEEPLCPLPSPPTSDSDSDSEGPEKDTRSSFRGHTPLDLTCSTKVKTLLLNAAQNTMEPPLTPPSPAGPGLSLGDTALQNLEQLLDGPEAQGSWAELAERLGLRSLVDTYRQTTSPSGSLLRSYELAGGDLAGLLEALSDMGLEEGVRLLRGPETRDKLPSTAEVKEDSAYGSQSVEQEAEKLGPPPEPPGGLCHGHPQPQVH
Sequence of Nuclear factor NF-kappa-B complex (Homo sapiens) (Q04206 whole entry, looked up): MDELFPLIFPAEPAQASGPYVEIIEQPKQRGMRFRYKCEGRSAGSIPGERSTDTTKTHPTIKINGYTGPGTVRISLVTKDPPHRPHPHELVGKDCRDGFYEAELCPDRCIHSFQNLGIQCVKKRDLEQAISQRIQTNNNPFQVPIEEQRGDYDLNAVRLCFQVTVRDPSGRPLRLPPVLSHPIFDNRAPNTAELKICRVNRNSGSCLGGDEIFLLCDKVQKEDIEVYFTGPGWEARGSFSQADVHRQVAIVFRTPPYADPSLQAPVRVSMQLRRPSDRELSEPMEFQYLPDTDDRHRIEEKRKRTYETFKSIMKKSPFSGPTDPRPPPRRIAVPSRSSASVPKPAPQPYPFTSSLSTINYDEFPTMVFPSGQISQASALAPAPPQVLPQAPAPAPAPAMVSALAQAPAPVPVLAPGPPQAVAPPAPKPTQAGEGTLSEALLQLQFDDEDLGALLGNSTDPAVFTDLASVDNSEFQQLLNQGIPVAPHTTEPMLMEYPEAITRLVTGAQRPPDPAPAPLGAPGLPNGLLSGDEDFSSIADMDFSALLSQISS

HFF-1 [24] = assay: Inhibition of H2O2-stimulated TNF-alpha production in SIPS HFF-1 cell model pre-incubated with compound for 12 hrs followed by H2O2 stimulation for 60 mins by ELISA method; type: functional, cell-based; details: Homo sapiens, dose 5-25 µg/ml, time 13.0 hrs
HFF-1 [25] = assay: Inhibition of H2O2-stimulated IL-1beta production in SIPS HFF-1 cell model pre-incubated with compound for 12 hrs followed by H2O2 stimulation for 60 mins by ELISA method; type: functional, cell-based; details: Homo sapiens, dose 5-25 µg/ml, time 13.0 hrs
HFF-1 [26] = assay: Induction of HFF-1 cell migration at 10 ug/mL measured for 2 to 8 hrs by transwell migration assay; type: functional, cell-based; details: Homo sapiens, dose 10.0 µg/ml, time 2-8 hrs
HFF-1 [27] = assay: Induction of autophagy in H2O2-induced SIPS HFF-1 cell model assessed as beclin-1 expression at 5 to 25 ug/mL pretreated with compound for 24 hrs followed by H2O2 exposure for 2 hrs by Western blot analysis; type: functional, cell-based; details: Homo sapiens, dose 5-25 µg/ml, time 26.0 hrs
[28] = Toxicity in Wistar rat mast cell assessed as cell degranulation by measuring increase in beta-hexosaminidase release at 160 ug/mL incubated for 15 mins by fluorescence based analysis (reference value: 0 +/- 1.40 %); details: 0.25 h, at 160 µg/mL
Erythrocyte = assay: Hemolytic activity in human erythrocytes assessed as release of hemoglobin at 10 to 160 ug/ml; type: toxicity, cell-based; details: dose 10-160 µg/ml
HFF-1 [29] = assay: Induction of autophagy in H2O2-induced SIPS HFF-1 cell model assessed as ratio of LC3BII/LC3BI levels at 5 to 25 ug/mL pretreated with compound for 24 hrs followed by H2O2 exposure for 2 hrs by Western blot analysis; type: functional, cell-based; details: Homo sapiens, dose 5-25 µg/ml, time 26.0 hrs
HFF-1 [30] = assay: Cytotoxicity against HFF-1 cells upto 160 ug/mL incubated for 24 hrs by MTT assay; type: toxicity, cell-based; details: human, hff-1, 24 h, up to 160 µg/mL
HEK293 = assay: Activation of COL1a2 transcriptional activity in HEK293 cells by dual-luciferase reporter assay; type: functional, cell-based; details: Homo sapiens
[31] = Antioxidant activity assessed as ROS scavenging activity; type: functional
HFF-1 [32] = assay: Protection against UV-A/H2O2-stress induced premature senescence HFF-1 cell model assessed as cell migration by measuring cellular repair activity at 10 ug/mL upto 24 hrs by inverted microscopic based cell scratch assay; type: functional; details: Homo sapiens, dose 10.0 µg/ml
[33] = Thermal stability of compound by measuring retention of ABTS radical scavenging activity at 2 mg/mL at 37 degC for 96 hrs; type: physicochemical
HFF-1 [34] = assay: Induction of autophagy in H2O2-induced SIPS HFF-1 cell model assessed as phosphorylated AMPK expression at 5 to 25 ug/mL pretreated with compound for 24 hrs followed by H2O2 exposure for 2 hrs by Western blot analysis; type: functional, cell-based; details: Homo sapiens, dose 5-25 µg/ml, time 26.0 hrs
[35] = Toxicity in Wistar rat mast cell assessed as cell degranulation by measuring increase in beta-hexosaminidase release at 40 ug/mL incubated for 15 mins by fluorescence based analysis (reference value: 0 +/- 1.40 %); details: 0.25 h, at 40 µg/mL
[36] = Antioxidant activity assessed as ABTS radical scavenging activity in presence of 50 mM NaCl; type: functional
HFF-1 [37] = assay: Inhibition of H2O2-induced AKT activation in HFF-1 cells assessed as downregulation of mTOR phosphorylation at 5 to 25 ug/mL pretreated with compound for 24 hrs followed by H2O2 exposure for 2 hrs by Western blot analysis; type: cell-based; details: Homo sapiens, dose 5-25 µg/ml, time 26.0 hrs
[38] = Toxicity in Wistar rat mast cell assessed as cell degranulation by measuring beta-hexosaminidase release at 40 ug/mL incubated for 15 mins by fluorescence based analysis (reference value: 20.13 +/- 1.40 %); details: 0.25 h, at 40 µg/mL
HFF-1 [39] = assay: Restoration of H2O2-induced mitochondrial membrane potential damage in SIPS HFF-1 cell model at 5 to 25 ug/mL incubated for 20 mins by JC-1 staining based fluorescence microscopic analysis; type: functional; details: Homo sapiens, dose 5-25 µg/ml
[40] = Antioxidant activity assessed as ABTS radical scavenging activity at 80 ug/mL incubated for 10 mins by absorbance based assay; type: functional; details: dose 80.0 µg/ml

inhibition [8]: Active
Stability [19]: Stable
Activity [23]: Active
Activity [33]: Active
SMILES: CC(C)[C@H](N)C(=O)N[C@H](C(=O)N1CCC[C@H]1C(=O)N[C@H](C(=O)N[C@H](C(=O)N[C@H](C(=O)N[C@@H](CS)C(=O)N1CCC[C@H]1C(=O)N[C@@H](CCCCN)C(=O)O)C(C)C)C(C)C)[C@@H](C)O)C(C)C (H-VVPTVVCPK-OH)
inhibition (HFF-1 [1]): Active
inhibition (HFF-1 [2]): Dose-Dependent Effect
Activity (HFF-1 [3]): Dose-Dependent Effect
Activity (HFF-1 [4]): Dose-Dependent Effect
Activity (Mus musculus [5]): Active
Activity (Mus musculus [6]): Active
Activity (Mus musculus [7]): Active
Activity [9]: 21.4%
Activity (HFF-1 [10]): Active
Activity (HFF-1 [11]): Active
Activity (Mus musculus [12]): Active
Activity (HFF-1 [13]): Active
Activity (Mus musculus [14]): Active
Activity [15]: 1.27%
Activity [16]: Active
Activity (Mus musculus [17]): Active
Activity (Mus musculus [18]): Active
Activity (HFF-1 [20]): Active
inhibition (HFF-1 [21]): Dose-Dependent Effect
Activity [22]: 26.03%
inhibition (HFF-1 [24]): Dose-Dependent Effect
inhibition (HFF-1 [25]): Dose-Dependent Effect
Activity (HFF-1 [26]): Active
Activity (HFF-1 [27]): Active
Activity [28]: 5.9%
Activity (Erythrocyte): Non-Toxic
Activity (HFF-1 [29]): Active
Activity (HFF-1 [30]): 5.14%
Activity (HEK293): Active
Activity [31]: Active
Activity (HFF-1 [32]): Active
Activity (HFF-1 [34]): Active
Activity [35]: 3.01%
Activity [36]: Active
inhibition (HFF-1 [37]): Active
Activity [38]: 23.14%
Activity (HFF-1 [39]): Active

SMILES: CC(C)[C@H](N)C(=O)N[C@H](C(=O)N[C@@H](CS)C(=O)N1CCC[C@H]1C(=O)N[C@@H](CCCCN)C(=O)O)C(C)C (H-VVCPK-OH)
Activity [40]: Active
Activity (HEK293): Active
Activity [31]: Active
